Measured values from patent US9018216B2, “Solid forms of (R)-2-(5-(2-(3-ethylureido)-6-fluoro-7-(tetrahydrofuran-2-yl)-1H-benzo[d]imidazol-5-yl)pyrimidin-2-yl)propan-2-yl dihydrogen phosphate and salts thereof” (priority 2012, dated 2015).
Converted amounts (≈) assume the structure as drawn. Structures can show the parent of a compound that is named as a salt. Where two headings read alike, the source gives them in different places.

Columns and labels:
[1] = Seven-day oral (gavage) toxicity and toxicokinetics study in rats; format: in vivo, Crl:CD(SD) rats; conditions: for Mean food consumption: Compound 13 once daily 100 or 200 mg/kg, Compound 23A twice daily 300 mg/kg, different intervals of the study, not considered adverse; for adverse observations or effects on mean body weight / dose levels without adverse toxicity within the scope of the study / NOEL (No-Observable-Effect-Level) / exposures for different dosage levels: male rats; for adverse observations or effects on mean body weight / dose levels without adverse toxicity within the scope of the study: 7 days oral gavage; for NOEL (No-Observable-Effect-Level): once a day for 7 days orally via gavage; for exposures for different dosage levels: oral gavage, toxicokinetics; for histopathological findings: any dose regimen
Text: Crl:CD(SD) rats were obtained from Charles River Laboratories of Stone Ridge, N.Y. The animals were laboratory bred and experimentally naïve. Rats were chosen because they are a species that is commonly used for nonclinical toxicity evaluations.
Forty rats (20 noncannulated males and 20 males with jugular vein cannulas) were ordered. From these animals, 15 noncannulated males and 15 cannulated males were used. Animals were as uniform in age as possible. The rats were prepubertal to young adult, approximately 9 weeks of age at initiation of dosing. Their supplier-calculated birth date was retained in the study records. The weight range for the animals at the time of allocation to groups was 218.5-306.3 g.
Animals received the test article or vehicle by oral gavage for 7 consecutive days and were terminated the day following completion of dosing. The first day of dosing was designated as Day 1 of the study. The animals were evaluated for changes in clinical signs, body weight, and other parameters as described below.
The vehicle and test article were administered by oral gavage once daily for 7 consecutive days at a dose volume of 10 mL/kg body weight for Group A and Groups B-D, respectively. The test article and vehicle were administered by oral gavage twice daily, approximately 8 hours apart, for 7 consecutive days at a dose volume of 10 mL/kg body weight for Group E and Group F, respectively. The actual volume administered to each animal was calculated and adjusted based on the most recent body weight of each animal.
During the treatment period, daily cageside observations were made and recorded predose and postdose (following the first dose only). The postdosing observations made during treatment occurred at the following times based on Cmax/Tmax for the two compounds from previous studies:
Prior to start of dosing, body weights were measured for randomization on Day 1. During the treatment, body weights were measured on Day 1 and Day 7. In addition, fasted body weights were measured prior to necropsy for calculation of organ/body weight ratios.
Throughout the study, food consumption was measured daily starting 3 days prior to start of dosing.
Blood samples for evaluation of hematology, coagulation, and serum chemistry parameters were collected from all animals from the retro-orbital plexus (under CO2/O2 anesthesia, for the main study animals) or jugular vein cannula (for the toxicokinetic animals) prior to necropsy. Due to residual heparin used to keep the cannulas patent for the toxicokinetic animals, coagulation samples from these rats, were not able to be analyzed. The animals were fasted overnight prior to blood collection. On the day of blood collection for clinical pathology analyses, the animals were not necropsied until after the blood was collected and the samples judged to be acceptable by the clinical pathology group.
On the 1st and 7th day of dosing, blood samples (approximately 0.5 mL/sample) were collected from the jugular vein cannula for all toxicokinetic animals at the timepoints listed below into K3EDTA-containing tubes. […] Prior to each collection, a small sample of blood (with heparin blocking solution) was removed from the cannula and discarded. A new syringe was placed on the cannula, and the protocol-required sample was taken. The syringe with the blood sample was removed, and a new syringe with saline attached to the cannula. Blood volume was replaced with an equal volume of saline and then blocking solution placed in the cannula. Each animal was returned to its cage until the next collection timepoint.
For all animals euthanized at scheduled necropsies, the kidneys, liver, and prostate gland were weighed. Following weighing, an approximate 1 gram sample of liver and kidney was weighed, transferred to Precellys 7 mL CK28 Tissue Homogenizing tubes (Cat. No. 0904-01), snap-frozen, and analyzed. […]

[2] = tested on: M. tuberculosis Erdman ATCC 35801; experiment: Mycobacterium tuberculosis serum shift MIC assay (Protocol 5); format: cell-based
M. tuberculosis H37Rv = conditions: cited from earlier work
[3] = tested on: M. tuberculosis ATCC 35801 (strain Erdman); experiment: Mouse M. tuberculosis (Erdman) 28 day lung infection model; format: in vivo, M. tuberculosis; host Balb/c mice; conditions: 28 days
[4] = Stability of the solid forms (net increase in total impurities at 40 C/30% RH); format: physicochemical; conditions: 15 days
[5] = tested on: Staphylococcus aureus ATCC 29213; experiment: microbe, parasite or virus in culture; format: cell-based; conditions: Staphylococcus aureus, ATCC29213, Staphylococcus aureus ATCC 29213; Protocol 1; read-out: MIC
[6] = Monkey oral pharmacokinetic study; format: in vivo, cynomolgus monkeys; conditions: 0.5% MC, plasma analyte
Text: (§1) Plasma concentration vs. time data was subjected to noncompartmental pharmacokinetic (PK) analysis.

[7] = Oral range finding toxicity and toxicokinetic study in male Cynomolgus monkeys; format: in vivo, Cynomolgus monkeys (Macaca Fascicularis)
Text: Cynomolgus monkeys (Macaca Fascicularis) were obtained from Primus Bio-Resources Inc. of PinCourt, Quebec, Canada. Cynomolgus monkeys were chosen because they are a non-rodent species that is commonly used for nonclinical toxicity evaluations.
Eight (2 naive and 6 non-naïve) males were used in the study. The animals were young adults and weighed between 2 to 4 kg at the onset of dosing.
The first day of dosing was designated as Day 1 of the study. The actual volume administered to each animal was calculated and adjusted based on the most recent body weight of each animal.
Cage-side clinical signs (ill health, behavioral changes etc.) were recorded at least once daily during the study.
Body weights were recorded for all animals prior to group assignment and on Days 1 (prior to dosing), 3 and 7 as well as terminally prior to necropsy (fasted).
Electrocardiograms (bipolar limb leads I, II and III, and augmented unipolar leads aVR, aVL and aVF) were obtained for all monkeys once during the pre-treatment period and again on Day 7 (post-dosing).
The tracings were assessed for gross changes indicative of cardiac electrical dysfunction. The potential presence of abnormalities involving heart rate (lead II), sinus and atrioventricular rhythm or conductivity were determined. Heart rate, PR interval, QRS duration, QT and QTc intervals values were measured.
A series of 7 blood samples (approximately 0.5 mL each) were collected from each monkey on Days 1 and 7 at the following time points: predose, 30 minutes and 2, 3, 6, 12 and 24 hours post-dose. For this purpose, each monkey was bled by venipuncture and the samples were collected into tubes containing the anticoagulant, K2EDTA. Tubes were placed on wet ice until ready for processing.
Laboratory investigations (hematology, coagulation, clinical chemistry and urinalysis) were performed on all animals prior to start of treatment and prior to termination on Day 8.
A necropsy with tissue collection was conducted on all animals terminated during the study. The necropsy included examination of:
For all animals, all tissues indicated above were embedded in paraffin, sectioned and stained with hematoxylin and eosin and examined by light microscopy.

[8] = Rat oral pharmacokinetic study; format: in vivo, Sprague Dawley rats; conditions: 0.5% MC, plasma analyte
Text: as §1

[9] = Monkey IV pharmacokinetic study; conditions: Compound W IV 5 mg/kg, D5W, plasma analyte
Protocol: Animals had free access to food and water before and after dosing.
Blood samples (approximately 0.25 mL each) were collected via a carotid artery catheter prior to dosing and at 0 (predose), 5 min, 10 min, 0.25, 0.5, 1, 2, 3, 4, 6, 8, 12, 24, 48 hours postdose. Each blood sample was collected into a tube that was kept on wet ice and contained potassium EDTA as the anticoagulant. Plasma was separated and stored at approximately −70° C. until analysis.
Plasma concentration vs. time data were subjected to noncompartmental pharmacokinetic (PK) analysis.

[10] = Rat IV pharmacokinetic study; conditions: D5W, plasma analyte
[11] = M. tuberculosis Erdman ATCC 35801
[12] = M. tuberculosis Erdman ATCC 35801 with Mouse Serum
[13] = rats, 300 mg/kg twice a day, compared to controls treated twice a day
[14] = Table 23a, 10 mg/kg BID oral gavage
[15] = Table 23a, 30 mg/kg BID oral gavage
[16] = Table 23a, 100 mg/kg BID oral gavage
[17] = doses up to 200 mg/kg/day, 7 days

CCNC(=O)Nc1nc2cc(-c3cnc(C(C)(C)O)nc3)cc([C@H]3CCCO3)c2[nH]1 [Compound 13, 1-ethyl-3-[5-[2-(1-hydroxy-1-methyl-ethyl)pyrimidin-5-yl]-7-[(2R)-tetrahydrofuran-2-yl]-1H-benzimidazol-2-yl]urea]
Mean food consumption [1]: reduced | adverse observations or effects on mean body weight [1]: No adverse observations or effects on mean body weight | dose levels without adverse toxicity within the scope of the study [1]: up to 200 mg/kg/day | NOEL (No-Observable-Effect-Level) [1]: 200 mg/kg | exposures for different dosage levels [1]: dose related | histopathological findings ([1]; rats): No test article-related histopathological findings | MIC [2, 11]: 0.045 µg/mL | MIC [2, 12]: 2 µg/mL

NC(=O)c1cnccn1 [Pyrazinamide]
MIC (M. tuberculosis H37Rv; normal pH): 250 µg/mL (≈ 2030 µM) | MIC (M. tuberculosis H37Rv; pH 6.0): 50 µg/mL (≈ 406 µM)

CCNC(=O)Nc1nc2cc(-c3cnc(C(C)(C)O)nc3)c(F)c([C@H]3CCCO3)c2[nH]1 [Compound 23A, methanesulfonic acid salt of 1-ethyl-3-[6-fluoro-5-[2-(1-hydroxy-1-methyl-ethyl)pyrimidin-5-yl]-7-[(2R)-tetrahydrofuran-2-yl]-1H-benzimidazol-2-yl]urea]
Mean food consumption [1]: reduced | adverse observations or effects on mean body weight [1]: No adverse observations or effects on mean body weight | dose levels without adverse toxicity within the scope of the study [1]: ≤ 600 mg/kg/day | NOEL (No-Observable-Effect-Level) [1]: 100 mg/kg | exposures for different dosage levels [1]: dose related | AST [1, 13]: statistically higher | mean ALT [1, 13]: statistically higher | mean calcium ion concentration (CA) [1, 13]: statistically lower | histopathological findings ([1]; rats): No test article-related histopathological findings | MIC [2, 11]: 0.03 µg/mL | MIC [2, 12]: 0.5 µg/mL | Average Lung Burden [3, 14]: 5.08 Log cfu/lungs | Log Reduction vs. Early Control [3, 14]: −0.10 Log | Log Reduction vs. Late Control [3, 14]: 0.13 Log | Average Lung Burden [3, 15]: 4.11 Log cfu/lungs | Log Reduction vs. Early Control [3, 15]: 0.86 Log | Log Reduction vs. Late Control [3, 15]: 1.09 Log | Average Lung Burden [3, 16]: 3.22 Log cfu/lungs | Log Reduction vs. Early Control [3, 16]: 1.76 Log | Log Reduction vs. Late Control [3, 16]: 1.98 Log | reduction of bacterial burdens versus the early control ([3]; doses of 30 and 100 mg/kg): 0.7-1.5 logs

COc1c(N2C[C@@H]3CCCN[C@@H]3C2)c(F)cc2c(=O)c(C(=O)O)cn(C3CC3)c12 [Moxifloxacin, reference compound]
Average Lung Burden ([3]; Table 23a, 100 mg/kg QD): 2.94 Log cfu/lungs | Log Reduction vs. Early Control ([3]; Table 23a, 100 mg/kg QD): 2.04 Log | Log Reduction vs. Late Control ([3]; Table 23a, 100 mg/kg QD): 2.26 Log | Log Reduction vs. Early Control ([3]; Table 23b, 100 mg/kg QD): 2.04 Log | Log Reduction vs. Late Control ([3]; Table 23b, 100 mg/kg QD): 1.42 Log | Median Lung Burden ([3]; Table 23b, 100 mg/kg QD): 2.94 Log cfu/lungs

CCNC(=O)Nc1nc2cc(-c3cnc(C(C)(C)OP(=O)([O-])[O-])nc3)c(F)c([C@H]3CCCO3)c2[nH]1.[Na+].[Na+] [Amorphous di-Na salt, disodium (R)-2-(5-(2-(3-ethylureido)-6-fluoro-7-(tetrahydrofuran-2-yl)-1H-benzo[d]imidazol-5-yl)pyrimidin-2-yl)propan-2-yl phosphate]
Net % increase in total impurities [4]: 1.74% | MIC [5]: 4 µg/mL

CCNC(=O)Nc1nc2cc(-c3cnc(C(C)(C)O)nc3)c(F)c([C@H]3CCCO3)c2[nH]1 [Compound 23, 1-ethyl-3-[6-fluoro-5-[2-(1-hydroxy-1-methyl-ethyl)pyrimidin-5-yl]-7-[(2R)-tetrahydrofuran-2-yl]-1H-benzimidazol-2-yl]urea]
AUCextrap ([6]; Compound W PO 30 mg/kg): 24800 ng·h/mL | AUCextrap ([6]; Compound W PO 100 mg/kg): 76900 ng·h/mL | AUCextrap ([6]; Compound W PO 300 mg/kg): 155000 ng·h/mL | clinical signs, body weights, electrocardiography, clinical pathology, organ weights [7, 17]: no clinical signs, or changes in body weights, electrocardiography parameters, clinical pathology parameters, or organ weights | macroscopic or microscopic findings [7, 17]: no macroscopic or microscopic findings | no observed effect level (NOEL) ([7]; male Cynomolgus monkeys, oral gavage once per day for 7 days): 200 mg/kg/day | exposures for different dosage levels ([7]; male Cynomolgus monkeys, oral gavage, toxicokinetics): dose related | AUCextrap ([8]; Compound W oral 3 mg/kg): 314 ng·h/mL | AUCextrap ([8]; Compound W oral 30 mg/kg): 22600 ng·h/mL | AUCextrap ([8]; Compound W oral 100 mg/kg): 77400 ng·h/mL | AUCextrap [9]: 3810 ng·h/mL | AUCextrap ([10]; Compound W IV 1 mg/kg): 310 ng·h/mL | Cl_obs ([10]; Compound W IV 1 mg/kg): 54.9 mL/min/kg | Vss_obs ([10]; Compound W IV 1 mg/kg): 3.8 L/kg | t1/2 ([10]; Compound W IV 1 mg/kg): 1.8 h | AUCextrap ([10]; Compound W IV 5 mg/kg): 3060 ng·h/mL | Cl_obs ([10]; Compound W IV 5 mg/kg): 27.3 mL/min/kg | Vss_obs ([10]; Compound W IV 5 mg/kg): 4.08 L/kg | t1/2 ([10]; Compound W IV 5 mg/kg): 3.6 h
